Source: patent US12714097B2, “Compositions and systems for disinfection” (Markesbery Blue Pearl LLC, priority 2017, dated 2026)
In brackets after ≈: the same amount, converted by molar mass.

Experiments:
[1] = cited from earlier work; for Sol (Exp): experimental water solubility; for solubility: aqueous, at 25° C.
[2] = cited from earlier work; for Log P: known values used for standard curve; for log P Exp.: experimentally determined, database entry
[3] = Experimental water solubility of alcohol compounds at 25° C.

CC(C)CC(C)(C)O [2,4-Dimethyl-2-pentanol]
Sol (Exp) ([1]; 25° C.): 13.6 g/L

CCC(C)C(C)(C)O (centres unmarked) [2,3-Dimethyl-2-pentanol]
Sol (Exp) ([1]; 25° C.): 15.7 g/L

CC(C)CCO [3-methyl-1-butanol]
Sol (Exp) ([1]; 25° C.): 26.7 g/L

CCCC(C)O (centres unmarked) [2-pentanol]
Log P [2]: 1.19 | Sol (Exp) ([1]; 25° C.): 44.6 g/L

CCC(O)CC [3-pentanol]
log P Exp. [2]: 1.21 | Log P [2]: 1.21 | Sol (Exp) ([1]; 25° C.): 51.5 g/L

CC(C)CCCO [4-Methyl-1-pentanol]
Sol (Exp) ([1]; 25° C.): 7.6 g/L

CCCCC(C)O (centres unmarked) [2-hexanol]
log P Exp. [2]: 1.76 | Log P [2]: 1.76 | Sol (Exp) ([1]; 25° C.): 13.7 g/L

CCC(CC)CO [2-Ethyl-1-butanol]
Sol (Exp) ([1]; 25° C.): 4 g/L

CC=CC=CCO [2,4-Hexadien-1-ol]
log P Exp. [2]: 1.334

CC(C)C(O)C(C)C [2,4-Dimethyl-3-pentanol]
Sol (Exp) ([1]; 25° C.): 7 g/L

CCCCCO [n-pentanol]
log P Exp. [2]: 1.51 | Log P [2]: 1.51 | solubility [1]: 22 grams per liter | Sol (Exp) ([1]; 25° C.): 22 g/L | solubility converted to percent by weight of an aqueous composition [3]: 2.2 % by weight

CC(C)C(C)(C)O [2,3-Dimethyl-2-butanol]
Sol (Exp) ([1]; 25° C.): 43.5 g/L

CCC(C)(C)CO [2,2-Dimethyl-1-butanol]
Sol (Exp) ([1]; 25° C.): 7.6 g/L

CCCCCCCCO [n-octanol]
solubility [1]: 0.5 grams per liter

CC(C)=CCO [3-Methyl-2-buten-1-ol]
log P Exp. [2]: 1.244

CCCC(O)CC (centres unmarked) [3-hexanol]
log P Exp. [2]: 1.65 | Log P [2]: 1.65 | Sol (Exp) ([1]; 25° C.): 16.1 g/L | Solubility (at 25° C.) ([1]; water, 25° C., known values used for standard curve): 16.1 mg/mL (≈ 158 mM)

Cc1ccccc1O [2-methyl phenol]
Sol (Exp) ([1]; 25° C.): 25.9 g/L
